Patent US20130165419A1, “COMBINATION ANTI-INFLAMMATORY OPHTHALMIC COMPOSITIONS” (INSITE VISION INCORPORATED, priority 2011, published 2013)

Experiment: Release in the rabbit eye, measured by drug contained in the aqueous humor
Assay type: in vivo
Details: released from the gel of the ophthalmically acceptable vehicle
Protocol: The viscous gels that result upon administration of the aqueous suspensions of this invention to the eye have residence times in the eye ranging from about 2 to about 12 hours, e.g., from about 3 to about 6 hours. The active ingredients contained in these ophthalmically acceptable vehicles are released from the gels at rates that depend on such factors as the active ingredient itself and its physical form, the extent of drug loading and the pH of the system, as well as on any drug delivery adjuvants, such as ion exchange resins compatible with the ocular surface, which can also be present.

SMILES: CC(=O)[C@@]1(O)CC[C@H]2[C@@H]3C[C@H](C)C4=CC(=O)C=C[C@]4(C)[C@@]3(F)[C@@H](O)C[C@@]21C [fluorometholone]
- release rates in the rabbit eye, as measured by fluorometholone contained in the aqueous humor: in excess of four hours
